Laboratory results from US20160166560A1, “Urea Compounds and Their Use as FAAH Enzyme Inhibitors” (BIAL-PORTELA & Cª, S.A., priority 2013, published 2016).
Counter-ions that a name gives are not always drawn.

Tests used:
FAAH [1] = molecular target: T1, FAAH (Mus musculus, UniProt O08914); test: In vitro/ex vivo FAAH activity determination in liver after intra-tracheal instillation; set-up: Liver and brain fragments were removed and processed for enzymatic activity determination; from tissue; host or cells: mouse liver fragment homogenate; species or system male NMRI mice; conditions: remaining enzymatic activity vs controls, 1 mg/kg intra-tracheal instillation, sacrificed after 8 h
T1 sequence (O08914 1-579): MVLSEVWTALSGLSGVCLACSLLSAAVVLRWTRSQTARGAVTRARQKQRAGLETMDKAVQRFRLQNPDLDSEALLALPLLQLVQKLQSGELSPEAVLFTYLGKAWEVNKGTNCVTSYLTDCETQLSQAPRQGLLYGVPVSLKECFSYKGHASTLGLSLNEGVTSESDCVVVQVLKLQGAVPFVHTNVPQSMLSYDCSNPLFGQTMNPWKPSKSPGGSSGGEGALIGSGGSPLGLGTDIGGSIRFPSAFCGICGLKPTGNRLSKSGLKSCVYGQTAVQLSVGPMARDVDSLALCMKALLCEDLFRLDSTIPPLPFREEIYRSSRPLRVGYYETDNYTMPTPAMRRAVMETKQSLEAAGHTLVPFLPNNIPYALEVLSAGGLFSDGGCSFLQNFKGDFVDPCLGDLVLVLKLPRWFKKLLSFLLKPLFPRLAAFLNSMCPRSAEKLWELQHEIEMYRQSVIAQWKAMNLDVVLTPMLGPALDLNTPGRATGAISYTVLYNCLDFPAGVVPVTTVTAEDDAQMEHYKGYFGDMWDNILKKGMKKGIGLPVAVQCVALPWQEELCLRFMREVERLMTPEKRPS
Protocol: (§1) To evaluate the selectivity of test compounds in inhibiting FAAH activity, male NMRI mice were administrated following instillation with 1 mg/kg compound and were sacrificed after 8 h treatment. Liver and brain fragments were removed and processed for enzymatic activity determination.
(§2) FAAH activity was measured as the amount of ^3H-ethanolamine formed, by liquid scintillation counting, from the hydrolysis of the substrate anandamide (AEA, labeled with ^3H on the ethanolamine part of the molecule). The percentage of remaining enzymatic activity was calculated in respect to controls and after blank subtraction. Therefore, a low value for the test compounds indicates a strong inhibitor.
(§3) Male NMRI mice (body weight range: 25-35 g) were obtained from Harlan Laboratories (Barcelona, Spain). Animals were kept 10 per cage, under controlled environmental conditions (12 hr light [8 am]/12 hr dark [8 pm]cycle; room temperature 22±1° C.). Food and tap water were allowed ad libitum. Animals were habituated to the animal facilities at least for a week prior to experiments. The experiments were all carried out during daylight hours.
(§4) Animals were fasted overnight before administration of compounds. […] After administration the animals were given atipamezole (1 mg/kg) to reverse the sedative and analgesic effects induced by the anaesthesia.
(§5) Fifteen minutes before sacrifice, animals were anesthetized with pentobarbital 60 mg/kg administrated intra-peritoneally. The brain (without cerebellum) and a fragment of liver were collected into plastic vials containing membrane buffer (3 mM MgCl2, 1 mM EDTA, 50 mM Tris HCl, pH 7.4). Glass beads (2.5 mm BioSpec Products, Bartlesville, Okla., USA) were added to the vials containing the brain and liver tissues. Tissues were stored at −20° C. until analysis.
(§6) Anandamide [ethanolamine-1-^3H-] was obtained from American Radiochemicals—with a specific activity of 60 Ci/mmol. All other reagents were obtained from Sigma-Aldrich. Optiphase Supermix was obtained from Perkin Elmer.
(§7) Brain and liver tissues were thawed and homogenized in 10 volumes of membrane buffer (3 mM MgCl2, 1 mM EDTA, 50 mM Tris HCl, pH 7.4) with homogenizer Precellys 24 Dual Tissue Homogenizer (Bertin Technologies) for 2 cycles of 5 sec (5000 rpm).
(§8) Total protein in the tissue homogenates was determined with the BioRad Protein Assay (BioRad) using a standard curve of BSA ([…]). Tissue homogenates were diluted to appropriate concentration for enzymatic determination in assay buffer (1 mM EDTA, 10 mM Tris HCl, pH 7.6).
(§9) Reaction mix (total volume 200 μL) contained 2 μM AEA (2 μM AEA+5 nM ^3H-AEA), 0.1% fatty acid free BSA, 15 μg (brain) or 5 μg (liver) protein, in assay buffer (1 mM EDTA, 10 mM Tris pH 7.6).
(§10) The test compound was used at a level of 1 mg/kg protein. After 15 minutes pre-incubation at 37° C. of the protein sample, reaction was started by the addition of the substrate solution (cold AEA+radiolabelled AEA+BSA). Reaction was carried out for 12 minutes for brain and liver tissues. Reaction was terminated by addition of 400 μL chloroform:methanol (1:1, v/v) solution. Reaction samples were vortex twice, left on ice for 5 minutes and then centrifuged in the microfuge for 7 minutes, 7000 rpm. 200 μL of the obtained supernatants were added to […] Optiphase Supermix scintillation cocktail previously distributed in 24-well plates.
(§11) Counts per minute (cpm) were determined in a Microbeta TriLux scintillation counter. In each assay blank samples (without protein) were prepared.

CYPs = CYPs metabolic stability assay in HLM (human liver microsomes); type: in vitro ADME; conditions: HLM 1 mg/ml protein, compound 5 μM, 60 min, 37° C.; for Control (% remain): absence of NADPH; for CYP+ (% remain): with NADPH 1 mM
Protocol: Stability of the test compounds was performed in HLM (human liver microsomes) in the presence and in the absence of NADPH.
The stability was measured using the incubation mixture (100 μl total volume) contained 1 mg/ml total protein, MgCl2 5 mM and 50 mM K-phosphate buffer. Samples were incubated in the presence and in the absence of NADPH 1 mM. Reactions were pre-incubated 5 min and the reaction initiated with the compound under test (at a concentration of 5 μM). Samples were incubated for 60 min in a shaking water bath at 37° C. The reaction was stopped by adding 100 μl of acetonitrile. Samples were then centrifuged, filtered and supematant injected in HLPC-MSD. Test compounds were dissolved in DMSO and the final concentration of DMSO in the reaction was below 0.5% (v/v). At T0 acetonitrile was added before adding the compound. All experiments were performed with samples in duplicate.

FAAH [2] = molecular target: T1, FAAH; test: In vitro/ex vivo FAAH activity determination in brain after intra-tracheal instillation; set-up: Liver and brain fragments were removed and processed for enzymatic activity determination; from tissue; species or system male NMRI mice; conditions: remaining enzymatic activity vs controls, 1 mg/kg intra-tracheal instillation, sacrificed after 8 h
Protocol: as §1, §2, §3, §4, §5, §6, §7, §8, §9, §10, §11

| SMILES | FAAH Activity - Liver itc (% C) (FAAH [1]; hydrochloride, 1 mg/kg) | Control (% remain) (CYPs; hydrochloride) | CYP+ (% remain) (CYPs; hydrochloride) | FAAH Activity - Brain itc (% C) (FAAH [2]; hydrochloride, 1 mg/kg) | FAAH Activity - Liver itc (% C) (FAAH [1]) | Control (% remain) (CYPs) | CYP+ (% remain) (CYPs) | FAAH Activity - Brain itc (% C) (FAAH [2]) |
| --- | --- | --- | --- | --- | --- | --- | --- | --- |
| COc1cc(CN2CCC(N(C)C(=O)n3cnc(-c4ccc(OS(N)(=O)=O)cc4)c3)CC2)cc(OC)c1 [Example 8, 4-(1-((1-(3,5-dimethoxybenzyl)piperidin-4-yl)(methyl)carbamoyl)-1H-imidazol-4-yl)phenyl sulfamate hydrochloride] | 5.4 % C | 93.2 % remain | 25.2 % remain | 97.6 % C |  |  |  |  |
| COc1cc(CN2CCC(N(C)C(=O)n3cnc(-c4cccc(OS(N)(=O)=O)c4)c3)CC2)cc(OC)c1.Cl [Example 9, 3-(1-((1-(3,5-dimethoxybenzyl)piperidin-4-yl)(methyl)carbamoyl)-1H-imidazol-4-yl)phenyl sulfamate hydrochloride] |  |  |  |  | 3.9 % C | 102.5 % remain | 62.8 % remain | 107.2 % C |
| COc1cc(CN2CCC(N(C)C(=O)n3cnc(-c4cccc(OS(N)(=O)=O)c4)c3)CC2)ccc1F [Example 10, 3-(1-((1-(4-fluoro-3-methoxybenzyl)piperidin-4-yl)(methyl)carbamoyl)-1H-imidazol-4-yl)phenyl sulfamate hydrochloride] |  |  |  |  | 3.2 % C | 100.0 % remain | 5.8 % remain | 113.4 % C |
| COc1cccc(CN2CCC(N(C)C(=O)n3cnc(-c4cccc(OS(N)(=O)=O)c4)c3)CC2)c1.Cl [Example 11, 3-(1-((1-(3-methoxybenzyl)piperidin-4-yl)(methyl)carbamoyl)-1H-imidazol-4-yl)phenyl sulfamate hydrochloride] |  |  |  |  | 4.4 % C | 100.0 % remain | 5.9 % remain | 84.2 % C |
| COc1cc(CN2CCC(N(C)C(=O)n3cnc(-c4ccc(OS(N)(=O)=O)cc4)c3)CC2)ccc1F [Example 12, 4-(1-((1-(4-fluoro-3-methoxybenzyl)piperidin-4-yl)(methyl)carbamoyl)-1 H-imidazol-4-yl)phenyl sulfamate oxalate] |  |  |  |  | 3.8 % C | 106.2 % remain | 7.9 % remain | 108.7 % C |
| COc1cccc(CN2CCC(N(C)C(=O)n3cnc(-c4ccc(OS(N)(=O)=O)cc4)c3)CC2)c1 [Example 14, 4-(1-((1-(3-methoxybenzyl)piperidin-4-yl)(methyl)carbamoyl)-1H-imidazol-4-yl)phenyl sulfamate hydrochloride] |  |  |  |  | 6.0 % C | 100.9 % remain | 68.6 % remain | 89.3 % C |
| CN(C(=O)n1cnc(-c2cccc(OS(N)(=O)=O)c2)c1)C1CCN(c2ccc(O)cc2)CC1 [Example 15, 3-(1-((1-(4-hydroxyphenyl)piperidin-4-yl)(methyl)carbamoyl)-1H-imidazol-4-yl)phenyl sulfamate hydrochloride] |  |  |  |  | 3.0 % C | 94.4 % remain | 87.1 % remain | 91.1 % C |
| CN(C(=O)n1cnc(-c2cccc(NC(N)=O)c2)c1)C1CCN(Cc2ccccc2)CC1 [Example 16, N-(1-benzylpiperidin-4-yl)-N-methyl-4-(3-ureidophenyl)-1H-imidazole-1-carboxamide hydrochloride] | 4.5 % C |  |  | 96.9 % C |  | 101.4 % remain | 17.0 % remain |  |
| CN(C(=O)n1cnc(-c2cccc(NC(N)=O)c2)c1)C1CCN(Cc2ccc3c(c2)OCO3)CC1.Cl [Example 18, N-(1-(benzo[d][1,3]dioxol-5-ylmethyl)piperidin-4-yl)-N-methyl-4-(3-ureidophenyl)-1H-imidazole-1-carboxamide hydrochloride] |  |  |  |  | 3.4 % C | 97.6 % remain | 76.8 % remain | 93.3 % C |
| CN(C(=O)n1cnc(-c2cccc(NS(C)(=O)=O)c2)c1)C1CCN(c2ccc(O)cc2)CC1 [Example 24, N-(1-(4-hydroxyphenyl)piperidin-4-yl)-N-methyl-4-(3-(methylsulfonamido)phenyl)-1H-imidazole-1-carboxamide hydrochloride] |  |  |  |  | 5.7 % C | 91.5 % remain | 76.2 % remain | 92.6 % C |
| CN(C(=O)n1cnc(-c2cccc(NC(N)=O)c2)c1)C1CCN(c2ccc(O)cc2)CC1 [Example 25, N-(1-(4-hydroxyphenyl)piperidin-4-yl)-N-methyl-4-(3-ureidophenyl)-1 H-imidazole-1-carboxamide hydrochloride] |  |  |  |  | 9.0 % C | 61.5 % remain | 49.1 % remain | 100.7 % C |
